Source: patent publication US20050148069A1, “IGF-1 instructs multipotent adult CNS neural stem cells to an oligodendroglial lineage” (priority 2003, published 2005)

Tested on: adult hippocampus-derived neural progenitor cells
Assay: in vitro differentiation analysis of neural progenitor cells (immunocytochemistry for lineage markers)
Type: cell-based, rat
Settings: for differentiation of neural progenitor cells into oligodendrocytes: 500 ng/ml; for differentiation of neural progenitor cells into oligodendrocytes / GFAP+ astrocytes: 4 days; for rank order of potency for oligodendrocyte differentiation: different concentrations (20-1000 ng/ml); for GFAP+ astrocytes: each at 500 ng/ml
Description: The neural progenitor cells isolated from the hippocampus of female Fischer 344 used in this study have been characterized previously (Gage et al., 1995; Palmer et al., 1997). The whole brain-derived neural stem cells from PIO ICR mice were isolated and cultured according to the methods as described, with slight modifications. Cells were cultured as previously described (Gage et al., 1995; Ray et al., 1993). Cells between passages 10 and 20 were used for in vitro differentiation analyses. To induce differentiation, cells were plated into 4-well chamber slides at a density of 55,000-75,000 cells per well and were allowed to proliferate in N2-supplemented (Invitrogen) DMEM:F12 (Omega Scientific) medium containing 20 ng/ml FGF-2 (PeproTech, Inc.) for 24 hours. FGF-2 was then withdrawn and cells were subsequently treated with differentiation media. […] For IGF-induction experiments, cells were trypsinized, washed with 1× PBS, and plated into insulin-free N2 medium. […] In some cultures, BrdU (2.5 μM, Sigma) was added to label dividing cells, and Q-VD-OPh (2 μM, Enzyme Systems Products) was added to prevent apoptosis.
Cells were fixed with 4% paraformaldehyde, followed by immunocytochemical staining as described (Palmer et al., 1999). Labeled cells were visualized using a Nikon E800 upright microscope or a Nikon E600 inverted microscope (Nikon Inc.) and a Spot RT CCD camera (Diagnostic Instruments Inc.). 4′,6-diamidino-2-phenylindole (DAPI) was used to identify individual cells. Quantification of cell phenotypes was with StereoInvestigator (MicroBrightfield Inc.); for each marker, 500-1000 cells were sampled systematically from standardized fields at 40×magnification. For quantification of live/dead cells, images were taken of cultures live-stained with propidum iodide (1 μg/ml; Molecular Probes) and Hoescht 33342 (1 μg/ml; Sigma) at 10×magnification, and cells were counted using Image-Pro (Media Cybernetics). The following primary antibodies were used: rabbit anti-Tuj1 (1:7500;Covance), mouse anti-RIP (1:25-1:75; Hybridoma Bank); guinea pig anti-GFAP (1:500-1:2500; Advanced Immunochemical, Inc.); rabbit anti-MBP (1:500; Chemicon International Inc.), rat anti-BrdU (1:400; Accurate). Secondary antibodies were all from Jackson ImmunoResearch and used at 1:250 dilution. The detection of BrdU in cultured cells required treatment in 2 N HCL at 37° C. for 30 min (Palmer et al., 1999). All experiments were independently replicated at least 3 times.

| Molecule | effects on proliferation or differentiation (2 μM Q-VD-OPh, 2-day cultures) | cell survival (DAPI-stained nuclei, persistence of cells) (2 μM Q-VD-OPh, 2-day cultures, insulin-free N2 medium) | RIP+ differentiation (2 μM Q-VD-OPh, no IGF-I, 2-day cultures, insulin-free N2 medium) | differentiation of neural progenitor cells into oligodendrocytes | rank order of potency for oligodendrocyte differentiation | GFAP+ astrocytes |
| --- | --- | --- | --- | --- | --- | --- |
| CC(C)[C@H](NC(=O)c1ccc2ccccc2n1)C(=O)N[C@@H](CC(=O)O)C(=O)COc1c(F)cccc1F [Q-VD-OPh, reference compound] | without obvious effects on proliferation or differentiation | promoted the majority of the cells to survive | approximately 2% | – | – | – |
| IGF-II: human recombinant IGF-II (R&D Systems) | – | – | – | could also promote the preferential differentiation of neural progenitor cells into oligodendrocytes | IGF-I>IGF-II>insulin | few to no GFAP+ astrocytes |
| insulin: insulin (Sigma) | – | – | – | could also promote the preferential differentiation of neural progenitor cells into oligodendrocytes | IGF-I>IGF-II>insulin | few to no GFAP+ astrocytes |
